For one data set, the target named is T1, Haspin (Homo sapiens, UniProt Q8TF76).
T1 construct: amino acids 470 to Histone H3 peptide (1-21): (Other) 798, recombinant; host or cells: bacteria
T1 sequence (Q8TF76 470-798): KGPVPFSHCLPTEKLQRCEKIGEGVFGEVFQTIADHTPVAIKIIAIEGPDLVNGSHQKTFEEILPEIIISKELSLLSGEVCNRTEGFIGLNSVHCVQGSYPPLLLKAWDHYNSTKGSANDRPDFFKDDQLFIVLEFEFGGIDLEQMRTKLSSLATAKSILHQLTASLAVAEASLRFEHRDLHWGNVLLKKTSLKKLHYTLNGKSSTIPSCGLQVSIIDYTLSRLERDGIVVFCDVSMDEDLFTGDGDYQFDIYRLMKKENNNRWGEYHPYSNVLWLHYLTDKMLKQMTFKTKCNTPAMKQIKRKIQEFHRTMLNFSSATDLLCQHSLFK
In words: ADP-Glo kinase inhibition assay, Haspin. It counts as biochemical. As to conditions: percentage of maximum activity of the DMSO control, mean n = 2, 10 µM ATP, read-out: Residual activity Haspin; for remaining activity at 1 µM: 1 μM compound; for remaining activity at 10 µM: 10 μM compound. As to the method: (§1) Kinase enzymatic activities were assayed in 384-well plates using the ADP-Glo^TM assay kit (Promega, Madison, WI, USA) according to the recommendations of the manufacturer. This luminescent ADP detection assay was described by Zegzouti and co-workers and provides a homogeneous and high-throughput screening method to measure kinase activity by quantifying the amount of ADP produced during a kinase reaction. Briefly, the reactions were carried out in a final volume of 6 µL for 30 min at 30 °C in an appropriate kinase buffer (10 mM MgCl2, 1 mM EGTA, 1 mM DTT, 25 mM Tris-HCl pH 7.5, 50 µg/mL heparin), with peptide or protein as substrate in the presence of 10 µM ATP. Peptide substrates were obtained from ProteoGenix (Schiltigheim, France) or Sigma for Histone H1, Poly (L-glutamic acid–L-tyrosine) sodium salt, Casein and MBP. After that, 6 µL of ADP-Glo^TM Kinase Reagent was added to stop the kinase reaction. After an incubation time of 50 min at room temperature (rt), 12 µL of Kinase Detection Reagent was added for one hour at rt. The transmitted signal was measured using the Envision (PerkinElmer, Waltham, MA, USA) microplate luminometer and expressed as Relative Light Units (RLUs). Kinase activities are expressed as percentages of remaining kinase activities detected after treatment with 1 or 10 µM of the tested compounds. The maximum kinase activity was measured in the absence of inhibitor but with an equivalent dose of DMSO (solvent of the tested compounds).
(§2) 3. Kinase inhibition assays
(§3) Kinase enzymatic activities were assayed in 384-well plates using the ADP-GloTM assay kit (Promega, Madison, WI) according to the recommendations of the manufacturer. This luminescent ADP detection assay was described by Zegzouti and co-workers and provides a homogeneous and high-throughput screening method to measure kinase activity by quantifying the amount of ADP produced during a kinase reaction. Briefly, the reactions were carried out in a final volume of 6 µl for 30 min at 30°C in appropriate kinase buffer (10 mM MgCl2, 1 mM EGTA, 1 mM DTT, 25 mM Tris-HCl pH 7.5, 50 µg/mL heparin), with peptide or protein as substrate in the presence of 10 µM ATP. Peptide substrates were obtained from ProteoGenix (Schiltigheim, France) or Sigma for Histone H1, Poly (L-glutamic acid – L-tyrosine) sodium salt, Casein and MBP. After that, 6 µL of ADP-GloTM Kinase Reagent was added to stop the kinase reaction. After an incubation time of 50 min at room temperature (rt), 12 µL of Kinase Detection Reagent was added for 1 h at rt. The transmitted signal was measured using the Envision (PerkinElmer, Waltham, MA) microplate luminometer and expressed in Relative Light Unit (RLU). Kinase activities are expressed in percentages of remaining kinase activities detected after treatment with 1 or 10 µM of the tested compounds. The maximal kinase activity is measured in the absence of inhibitor but with an equivalent dose of DMSO (solvent of the tested compounds).
(§4) Table. Human protein kinases tested in the panel: CDK9, HASPIN, PIM1, GSK3b, CK1ε, JAK3, CLK1 […]
Protein Kinase Enzyme Description Substrate1
(Family) (Working concentration)
CDK9/CyclinT Human, recombinant, expressed by Peptide:
(CMGC) baculovirus in Sf9 insect cells […]
CLK1 Human, recombinant, expressed by Peptide: […]
(CMGC) baculovirus in Sf9 insect cells (57.3µM)
DYRK1A Human, recombinant, expressed by Peptide: […]
(CMGC) baculovirus in Sf9 insect cells (10.7µM)
PIM1 Human proto-oncogene, recombinant, Peptide: […]
(CAMK) expressed in bacteria (630 µM)
GSK3 Human, recombinant, expressed by Peptide:
(CMGC) baculovirus in Sf9 insect cells […]pEDEEE 3
HASPIN Human, kinase domain, amino acids 470 to Histone H3 peptide (1-21):
(Other) 798, recombinant, expressed in bacteria […] (8µM)
CK1ε Human, recombinant, expressed by Peptide: […]pAYSITA 2
(CK1) baculovirus in Sf9 insect cells (170µM)
JAK3 Human, recombinant, expressed by Peptide: […]
(TK) baculovirus in Sf9 insect cells (94µM) […]
(ADP-Glo turns the ADP formed in a reaction into a luminescent signal.)

In a further data set the target is T2, GSK-3β (Homo sapiens, UniProt P49841).
T2 construct: host or cells: Sf9 insect cells (baculovirus)
T2 sequence (P49841 whole entry): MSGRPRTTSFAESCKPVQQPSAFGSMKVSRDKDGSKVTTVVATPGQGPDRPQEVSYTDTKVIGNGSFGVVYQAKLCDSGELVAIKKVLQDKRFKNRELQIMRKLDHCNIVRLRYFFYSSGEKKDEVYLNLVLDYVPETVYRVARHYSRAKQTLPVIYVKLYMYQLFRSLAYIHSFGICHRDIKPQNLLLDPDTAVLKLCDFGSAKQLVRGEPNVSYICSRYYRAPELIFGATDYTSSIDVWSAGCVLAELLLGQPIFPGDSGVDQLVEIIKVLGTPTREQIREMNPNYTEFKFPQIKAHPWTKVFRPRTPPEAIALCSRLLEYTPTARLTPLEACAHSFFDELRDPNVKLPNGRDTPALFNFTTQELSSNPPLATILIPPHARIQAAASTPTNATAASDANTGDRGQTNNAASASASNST
In words: ADP-Glo kinase inhibition assay, GSK-3β. Format: biochemical. As to conditions: percentage of maximum activity of the DMSO control, mean n = 2, 10 µM ATP, read-out: Residual activity GSK-3β; for remaining activity at 1 µM: 1 μM compound; for remaining activity at 10 µM: 10 μM compound. As to the method:
as §1, §2, §3, §4
1 Peptide substrates were obtained from ProteoGenix (Schiltigheim, France) or Sigma for Histone H1, Poly (L-glutamic acid – L-tyrosine) sodium salt, Casein and MBP; 2 “Sp” stands for phosphorylated serine.
Controls inhibitors: To validate each kinase assay, the following model inhibitors were used under the same conditions than the tested compounds: Staurosporine from Streptomyces sp.

Each structure is given as a SMILES string.

As a reminder, the melting point is the temperature of the solid-liquid transition. On to `COC(=N)c1nc2cc3c(=O)n(Cc4ccccc4)cnc3cc2s1` [Compound 6a, Methyl 7-benzyl-8-oxo-7,8-dihydrothiazolo[4,5-g]quinazoline-2-carbimidate], for which the melting point fell in the range of 213 to 214 °C. At Haspin, the remaining activity at 1 µM came to 89% and the remaining activity at 10 µM came out at 105%. Further, at GSK-3β, the remaining activity at 1 µM is 94% and the remaining activity at 10 µM came to 76%.
`COC(=N)c1nc2cc3ncn(Cc4ccccc4)c(=O)c3cc2s1` [Compound 6b, Methyl 7-benzyl-8-oxo-7,8-dihydrothiazolo[5,4-g]quinazoline-2-carbimidate]: the melting point was in the range of 244 to 245 °C. For the same compound, on Haspin, the remaining activity at 1 µM was 95% and the remaining activity at 10 µM was 82%. For the same compound, on GSK-3β, the remaining activity at 1 µM worked out at 101% and the remaining activity at 10 µM stood at 107%.
The like results for `COC(=N)c1nc2c(ccc3c(=O)n(Cc4ccccc4)cnc32)s1` [Compound 6c, Methyl 7-benzyl-6-oxo-6,7-dihydrothiazolo[5,4-h]quinazoline-2-carbimidate] were, in that order, 213 to 214 °C, 39%, 12%, 81% and 91%.
In turn, `COC(=N)c1nc2ccc3c(=O)n(Cc4ccccc4)cnc3c2s1` [Compound 6d, Methyl 7-benzyl-6-oxo-6,7-dihydrothiazolo[4,5-h]quinazoline-2-carbimidate] registered a melting point of 205 to 206 °C. On Haspin, the remaining activity at 1 µM was 82% and the remaining activity at 10 µM was 51%. In addition, at GSK-3β, the remaining activity at 1 µM stood at 94% and the remaining activity at 10 µM is 105%.
For `COC(=N)c1nc2cc3c(Nc4ccc(OC)cc4F)ncnc3cc2s1` [Compound 15a, Methyl 8-[(2-fluoro-4-methoxyphenyl)amino]thiazolo[4,5-g]quinazoline-2-carbimidate] the same measures were 246 to 247 °C, 83%, 66%, 90% and 70%.
The compound `COC(=N)c1nc2cc3ncnc(Nc4ccc(OC)cc4F)c3cc2s1` [Compound 15b, Methyl 8-[(2-fluoro-4-methoxyphenyl)amino]thiazolo[5,4-g]quinazoline-2-carbimidate] showed a melting point of 239 to 240 °C. At Haspin, the remaining activity at 1 µM worked out at 80% and the remaining activity at 10 µM came to 88%. For the same compound, at GSK-3β, the remaining activity at 1 µM is 101% and the remaining activity at 10 µM amounted to 104%.
For `COC(=N)c1nc2ccc3ncn(Cc4ccccc4)c(=O)c3c2s1` [Compound I, methyl 8-benzyl-9-oxo-8,9-dihydrothiazolo[5,4-f]quinazoline-2-carbimidate, reference compound], at Haspin, the remaining activity at 1 µM was 60% and the remaining activity at 10 µM was 45%. Also, at GSK-3β, the remaining activity at 1 µM is 73% and the remaining activity at 10 µM turned out to be 23%.
As for `COC(=N)c1nc2ccc3ncnc(Nc4ccc(OC)cc4F)c3c2s1` [Compound II, methyl 9-[(2-fluoro-4-methoxyphenyl)amino]thiazolo[5,4-f]quinazoline-2-carbimidate, reference compound], at Haspin, the remaining activity at 1 µM was 31% and the remaining activity at 10 µM is 8%.

The values are drawn from publication PMC11597202, “Novel Thiazole-Fused [4,5-g] or [5,4-g]Quinazolin-8-ones and Their Quinazoline Analogues: Synthesis and Biological Evaluation” (Pharmaceuticals, 2024).
